Usually Ki stands for the equilibrium dissociation constant of an inhibitor or competing ligand from its target. Read a low Ki as a stronger hold on the target. As a reminder, the IC50 is the midpoint of a concentration-inhibition curve. A lower IC50 goes with inhibition by little substance.

A value given as a limit tells only on which side of the number the result lay.

Experiment [1] addresses Synaptic vesicular amine transporter (Rattus norvegicus, UniProt Q01827). Nature of the experiment: Inhibition of [3H]DTBZ binding to VMAT2 in rat synaptic vesicle membrane. Format: cell membranes.
The target of experiment [2] is Sodium-dependent serotonin transporter (Rattus norvegicus, UniProt P31652). Put plainly: Inhibition of [3H]5-HT uptake at SERT in rat hippocampal synaptosomes. It counts as subcellular, Hippocampus.
The target in experiment [3] is Neuronal acetylcholine receptor subunit alpha-7 (Rattus norvegicus, UniProt Q05941). Nature of the experiment: Inhibition of [3H]MLA binding to alpha-7 nAChR in rat brain membrane. It counts as cell membranes.
Experiment [4] deals with Neuronal acetylcholine receptor; alpha4/beta2 (Rattus norvegicus, UniProt P09483+P12390). Nature of the experiment: Inhibition of [3H]NIC binding to alpha-4-beta-2 nAChR in rat brain membrane. It counts as cell membranes.
Experiment [5] has as its target Sodium-dependent dopamine transporter (Rattus norvegicus, UniProt P23977). Put plainly: Inhibition of [3H]DA uptake at DAT in rat striatal synaptosomes. Format: subcellular, Brain.

Neuronal acetylcholine receptor; alpha4/beta2, sequence (P09483 whole entry): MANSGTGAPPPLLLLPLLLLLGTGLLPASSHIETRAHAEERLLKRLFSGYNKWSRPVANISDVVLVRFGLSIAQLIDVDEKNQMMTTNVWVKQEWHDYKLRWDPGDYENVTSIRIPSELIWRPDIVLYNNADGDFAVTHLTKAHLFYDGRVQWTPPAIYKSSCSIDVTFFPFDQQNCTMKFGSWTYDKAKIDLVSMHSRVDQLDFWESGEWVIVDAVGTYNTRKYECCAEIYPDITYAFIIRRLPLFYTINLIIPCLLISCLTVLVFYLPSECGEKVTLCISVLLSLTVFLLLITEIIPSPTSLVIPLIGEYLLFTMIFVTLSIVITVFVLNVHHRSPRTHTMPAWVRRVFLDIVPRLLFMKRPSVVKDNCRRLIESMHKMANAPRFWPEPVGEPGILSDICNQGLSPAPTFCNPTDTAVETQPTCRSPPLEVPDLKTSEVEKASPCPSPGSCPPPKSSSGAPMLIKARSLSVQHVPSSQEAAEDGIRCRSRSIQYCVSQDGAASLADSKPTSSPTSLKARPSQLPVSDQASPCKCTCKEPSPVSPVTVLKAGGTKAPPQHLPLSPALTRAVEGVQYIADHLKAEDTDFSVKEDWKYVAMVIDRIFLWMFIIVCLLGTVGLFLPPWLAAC
Neuronal acetylcholine receptor; alpha4/beta2, sequence (P12390 whole entry): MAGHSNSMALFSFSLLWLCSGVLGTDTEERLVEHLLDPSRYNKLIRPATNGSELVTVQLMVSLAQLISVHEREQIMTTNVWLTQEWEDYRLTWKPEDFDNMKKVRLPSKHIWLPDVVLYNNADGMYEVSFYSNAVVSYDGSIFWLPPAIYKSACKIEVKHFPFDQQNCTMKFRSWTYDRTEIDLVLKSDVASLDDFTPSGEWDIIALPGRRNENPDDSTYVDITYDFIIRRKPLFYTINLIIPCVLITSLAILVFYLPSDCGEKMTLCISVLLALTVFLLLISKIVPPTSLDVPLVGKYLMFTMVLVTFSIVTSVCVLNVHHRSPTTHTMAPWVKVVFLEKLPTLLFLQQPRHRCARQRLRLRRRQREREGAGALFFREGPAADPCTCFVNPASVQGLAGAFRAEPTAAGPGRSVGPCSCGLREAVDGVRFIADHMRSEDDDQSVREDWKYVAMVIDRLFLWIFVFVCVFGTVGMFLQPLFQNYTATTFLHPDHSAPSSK
Synaptic vesicular amine transporter, sequence (Q01827 whole entry): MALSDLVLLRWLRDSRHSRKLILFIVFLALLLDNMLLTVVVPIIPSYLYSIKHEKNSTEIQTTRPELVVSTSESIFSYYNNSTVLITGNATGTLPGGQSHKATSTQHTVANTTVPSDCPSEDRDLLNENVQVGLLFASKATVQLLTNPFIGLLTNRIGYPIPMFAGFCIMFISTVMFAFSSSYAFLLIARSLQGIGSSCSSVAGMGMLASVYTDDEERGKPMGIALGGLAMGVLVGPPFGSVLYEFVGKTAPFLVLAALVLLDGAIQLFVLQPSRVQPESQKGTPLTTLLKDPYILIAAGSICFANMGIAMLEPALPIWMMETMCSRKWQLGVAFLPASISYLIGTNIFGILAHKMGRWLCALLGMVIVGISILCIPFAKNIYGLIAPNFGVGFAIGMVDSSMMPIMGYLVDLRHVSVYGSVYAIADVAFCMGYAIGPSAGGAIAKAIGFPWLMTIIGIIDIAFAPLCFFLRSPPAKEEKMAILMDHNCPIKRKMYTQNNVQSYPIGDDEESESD
Sodium-dependent dopamine transporter, sequence (P23977 whole entry): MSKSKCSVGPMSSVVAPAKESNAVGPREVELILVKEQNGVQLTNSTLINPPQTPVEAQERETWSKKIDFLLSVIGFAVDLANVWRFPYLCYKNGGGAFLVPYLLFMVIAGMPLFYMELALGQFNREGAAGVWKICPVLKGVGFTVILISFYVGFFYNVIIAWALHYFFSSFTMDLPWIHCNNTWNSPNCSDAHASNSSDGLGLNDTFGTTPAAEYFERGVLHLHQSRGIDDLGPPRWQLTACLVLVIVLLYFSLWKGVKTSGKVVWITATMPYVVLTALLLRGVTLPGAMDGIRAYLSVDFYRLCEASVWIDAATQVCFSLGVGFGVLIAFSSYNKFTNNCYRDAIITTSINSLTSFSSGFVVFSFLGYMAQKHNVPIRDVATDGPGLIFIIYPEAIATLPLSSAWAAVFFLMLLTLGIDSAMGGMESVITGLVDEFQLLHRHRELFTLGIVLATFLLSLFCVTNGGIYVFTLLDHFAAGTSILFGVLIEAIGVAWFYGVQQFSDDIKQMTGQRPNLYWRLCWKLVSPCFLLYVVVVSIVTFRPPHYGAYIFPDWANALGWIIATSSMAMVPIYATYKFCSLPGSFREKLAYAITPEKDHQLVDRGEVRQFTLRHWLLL
Neuronal acetylcholine receptor subunit alpha-7, sequence (Q05941 whole entry): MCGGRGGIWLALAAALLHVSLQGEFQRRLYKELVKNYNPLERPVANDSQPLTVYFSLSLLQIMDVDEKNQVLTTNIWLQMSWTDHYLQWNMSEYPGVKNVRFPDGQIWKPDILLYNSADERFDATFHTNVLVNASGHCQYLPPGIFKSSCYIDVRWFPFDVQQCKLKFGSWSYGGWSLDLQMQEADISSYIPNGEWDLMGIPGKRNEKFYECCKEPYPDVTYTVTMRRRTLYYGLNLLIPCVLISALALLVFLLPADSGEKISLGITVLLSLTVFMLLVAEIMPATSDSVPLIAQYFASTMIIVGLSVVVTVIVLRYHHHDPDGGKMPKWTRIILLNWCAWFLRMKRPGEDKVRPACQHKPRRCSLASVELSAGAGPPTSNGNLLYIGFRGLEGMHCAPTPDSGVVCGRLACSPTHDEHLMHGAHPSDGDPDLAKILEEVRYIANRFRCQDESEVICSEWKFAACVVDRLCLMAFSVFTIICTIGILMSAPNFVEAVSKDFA
Sodium-dependent serotonin transporter, sequence (P31652 whole entry): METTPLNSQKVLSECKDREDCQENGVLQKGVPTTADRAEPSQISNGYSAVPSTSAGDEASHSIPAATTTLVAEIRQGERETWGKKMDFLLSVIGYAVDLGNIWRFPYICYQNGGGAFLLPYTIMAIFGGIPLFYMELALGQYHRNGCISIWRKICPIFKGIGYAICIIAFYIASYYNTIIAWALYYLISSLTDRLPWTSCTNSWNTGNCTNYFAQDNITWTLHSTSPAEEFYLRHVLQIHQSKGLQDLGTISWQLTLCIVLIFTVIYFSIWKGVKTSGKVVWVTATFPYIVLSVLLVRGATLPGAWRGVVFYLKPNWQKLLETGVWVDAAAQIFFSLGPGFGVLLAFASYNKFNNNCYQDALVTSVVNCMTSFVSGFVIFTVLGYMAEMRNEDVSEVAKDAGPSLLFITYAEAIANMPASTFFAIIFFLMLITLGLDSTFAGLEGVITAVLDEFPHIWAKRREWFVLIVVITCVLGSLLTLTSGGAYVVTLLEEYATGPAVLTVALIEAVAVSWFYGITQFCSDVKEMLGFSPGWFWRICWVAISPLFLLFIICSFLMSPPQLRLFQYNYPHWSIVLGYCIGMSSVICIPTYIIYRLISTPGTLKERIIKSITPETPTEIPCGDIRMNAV

Turning to `CN1[C@@H](CCc2ccccc2)CCC[C@H]1C[C@H](O)c1ccccc1`, the inhibition constant (Ki) in experiment [1] was determined as 3.09 µM; in experiment [2] it was 4.27 µM; in experiment [3], 39300 nM; in experiment [4] it was 1.77 µM; in experiment [5] it was 1390 nM.

For the compound `CN1[C@H](C[C@H](O)c2ccccc2)CCC[C@@H]1/C=C/c1ccccc1`, the figures for the Ki in experiment [2] and in experiment [5] were 19 µM and 110 nM, respectively. In addition, the half-maximal inhibitory concentration (IC50) in experiment [3] is > 100 µM.

Take `CN1[C@@H](CCc2ccccc2)CCC[C@H]1C[C@@H](O)c1ccccc1`: the Ki came to 6.6 µM in experiment [1], 7.3 µM in experiment [2] and 570 nM in experiment [5]. Besides, the IC50 in experiment [3] and in experiment [4] was > 100 µM in each case.

Regarding `CN1[C@@H](C[C@H](O)c2ccccc2)CCC[C@H]1/C=C/c1ccccc1`, the values for the Ki in experiment [2] and in experiment [5] were 3.75 µM and 960 nM, respectively. Moreover, the half-maximal inhibitory concentration (IC50) in experiment [3] and in experiment [4] was > 100 µM throughout.

The compound `CCC1(O)CC2c3cc(OC)c(OC)cc3CCN2CC1CC(C)C` (configuration not stated) returned an inhibition constant (Ki) in experiment [1] of 0.028 µM.

Consider `CN1[C@H](C[C@@H](O)c2ccccc2)CCC[C@@H]1/C=C/c1ccccc1`, for which the values for the inhibition constant Ki in experiment [2] and in experiment [5] were 7.5 µM and 290 nM, respectively. Moreover, the half-maximal inhibitory concentration (IC50) in experiment [3] and in experiment [4] was > 100 µM in each case.

Regarding `CN1[C@H](CCc2ccccc2)CCC[C@@H]1C[C@H](O)c1ccccc1`, the inhibition constant Ki was found to be 3.01 µM in experiment [1], 2.22 µM in experiment [2], 33.6 µM in experiment [4] and 1260 nM in experiment [5]. Also, in experiment [3], the concentration for half-maximal inhibition (IC50) is > 100 µM.

In the case of `CN1[C@@H](C[C@@H](O)c2ccccc2)CCC[C@H]1/C=C/c1ccccc1`, the Ki was 0.044 µM in experiment [2], 1700 nM in experiment [3] and 4.19 µM in experiment [4].

`CN1[C@H](CCc2ccccc2)CCC[C@@H]1C[C@@H](O)c1ccccc1` [8R-hydroxylobelane]: the Ki is 1.98 µM in experiment [1]; 0.15 µM in experiment [2]; 1210 nM in experiment [3]; 2.36 µM in experiment [4]; 1880 nM in experiment [5].

Take `CN1[C@@H](CC(=O)c2ccccc2)CCC[C@H]1C[C@H](O)c1ccccc1` [LOBELINE]: the inhibition constant Ki was determined as 46.8 µM in experiment [2] and 28200 nM in experiment [5].

Source of the values: ChEMBL document CHEMBL1149505 (Bioorg Med Chem Lett, 2006).
